Source: paper PMC10290335 (Malaria Journal, 2023)

Legend:
[1] = Clinical pharmacokinetics of ivermectin metabolites in blood of healthy volunteers; format: in vivo, human; conditions: for Tmax: single oral 12 mg ivermectin
Procedure: Peripheral venous blood samples were collected before dosing and after 1, 2, 4, 6, 8, 12, 24, 48 and 72 h. Blood samples (50 µL) were extracted by the addition of 150 µL ISTD solution. Samples were mixed for 1 min and centrifuged for 30 min at 3220×g and 15 °C (5810 R centrifuge). Twenty microlitres of supernatant were injected into the LC–MS/MS system to determine the signal intensity of the metabolites.
The different LC–MS/MS settings were applied for the metabolism, pharmacokinetic and metabolite fractioning assays (Additional file 1: Table S1, S2, S3). All analyses were performed on a modular HPLC (Shimadzu, Kyoto, Japan) composed of four pumps (2 × LC-30AD, 2 × LC-20AD), an autosampler (SIL 30-AC MP), a system controller (CBM-20A), two degassing units (DGU-20A5 and DGU-20A3R), a column oven (CTO-20AC), a low-pressure valve (FCV-12AH), and a fraction collector (FRC-12A). The HPLC system was connected to an API 5000 triple quadrupole mass spectrometer (AB Sciex, Ontario, Canada) that was equipped with a turbo electrospray ionization source. The system was operated with Analyst Software 1.7 (AB Sciex) and acquired data were analysed using MultiQuant Software 3.0.3 (AB Sciex).
The integral method “linear up log down” was used on area/internal standard area ratio.
In total, three T0 blank blood samples originating from different PK study participants were used to resuspend the metabolites (Additional file 1: Table S5). The signal intensity was recorded for every metabolite by extracting the 50 µL blood with 150 µL of ISTD solution. The metabolite peak area was determined by LC–MS/MS (see section LC-MS/MS analysis of ivermectin). Moreover, the PK samples of all study participants were equally extracted and analysed to derive the maximal blood level (Cmax) from the blood level-time curves. Afterwards, the mean metabolite peak area of the spiked blank blood was compared with the mean peak area of the Cmax samples (Additional file 1: Table S5). The amount of each metabolite fraction was either reduced or increased to match the peak area of Cmax samples. If the metabolite was not detectable in PK samples, the amount of metabolite was adjusted to the lower limit of detection of the method. In this case, blank blood was spiked with the metabolite fraction to receive a signal intensity that is three times larger than the corresponding noise level.

[2] = tested on: Anopheles stephensi mosquitoes; experiment: Anopheles stephensi membrane feeding screening assay (survival and activity); format: in vivo; conditions: score +2 flying, +1 moving, 0 dead
Procedure: The final DMSO content in blood was 0.1%, which was also the DMSO concentration used for the negative control assays (0.1% DMSO in blank blood). Inclusion of blank fractions as additional negative controls were not considered, because it would not have been feasible to also test the corresponding blank fraction for each metabolite fraction (F1–F9). The blood preparations were rotated at room temperature for 20 min to ensure a uniform metabolite distribution (Rotator Genie, Scientific Industries, Bohemia, USA). The dissolution of the metabolites was confirmed by LC–MS/MS.
Around 50–70 female mosquitoes aged 5–10 days post-emergence were transferred with a mouth aspirator into 20 mL paper cups. A piece of mosquito netting was used to cover the cups. Mosquitoes were starved for 24 h before treatment. The mosquito blood meals were heated in a water bath (SAHARA PPO S5P Heated Bath Circulators, Thermo Fisher Scientific, New Hampshire, USA) for 20 min at 39 °C. A Petri dish (35 mm × 10 mm, BD, Franklin Lakes, USA) was filled with 3 mL of warm blood, sealed with a piece of sealing film (Parafilm®, Huberlab AG, Aesch, Switzerland). The Petri dish was placed upside down on top of the net sealing the paper cup. Female mosquitoes were allowed to feed for 20 min on the blood through the net and the sealing film. The feeding was conducted in a climate chamber (HPP110, Memmert GmbH + Co.KG, Schwabach, Germany) at 27 °C, 70% humidity, and 30% light intensity. After feeding, the cups were put on ice to immobilise the mosquitoes and only the fully engorged mosquitoes were selected for the assay. The mosquitoes were returned to the climate chamber to assess their activity and survival for 3 days.
In the framework of screening assays, mosquitoes were treated with blood containing each metabolite corresponding to Cmax levels observed in PK samples. […] In screening assays, eleven treatments were evaluated with three replicates using three batches of 50–70 mosquitoes.

[3] = mean of PK subjects 1-12, 50 µL blood
[4] = whole blood, 12 subjects, mean ± SE
[5] = whole blood, 12 subjects, 12 mg ivermectin, NCA, mean ± SE

Row | Substance | Observed Cmax, peak area ([1]; PK subject 1, 50 µL blood) [counts] | Observed Cmax, peak area ([1]; PK subject 2, 50 µL blood) [counts] | Observed Cmax, peak area ([1]; PK subject 3, 50 µL blood) [counts] | Observed Cmax, peak area ([1]; PK subject 4, 50 µL blood) [counts] | Observed Cmax, peak area ([1]; PK subject 5, 50 µL blood) [counts] | Observed Cmax, peak area ([1]; PK subject 6, 50 µL blood) [counts] | Observed Cmax, peak area ([1]; PK subject 7, 50 µL blood) [counts] | Observed Cmax, peak area ([1]; PK subject 8, 50 µL blood) [counts] | Observed Cmax, peak area ([1]; PK subject 9, 50 µL blood) [counts] | Observed Cmax, peak area ([1]; PK subject 10, 50 µL blood) [counts] | Observed Cmax, peak area ([1]; PK subject 11, 50 µL blood) [counts] | Observed Cmax, peak area ([1]; PK subject 12, 50 µL blood) [counts] | Observed Cmax, peak area [1, 3] [counts] | Tmax [1, 4] [h] | Average activity score ([2]; 0 h post feeding) | Average activity score ([2]; 24 h post feeding) | Average activity score ([2]; 48 h post feeding) | Average activity score ([2]; 72 h post feeding) | further results
1 | 26-hydroxy-H2B1a monosaccharide [M7] | 1.31E+03 | 7.70E+02 | 9.70E+02 | 7.68E+02 | 8.12E+02 | 1.39E+03 | 1.26E+03 | 1.09E+03 | 7.88E+02 | 9.63E+02 | 1.21E+03 | 9.57E+02 | 1.02E+03 | 6.1 ± 0.4 | 2.00 | 1.85 | 1.80 | 1.69 | –
2 | 26-hydroxy-H2B1a [M3] | 6.21E+03 | 3.33E+03 | 4.98E+03 | 2.70E+03 | 3.63E+03 | 5.52E+03 | 4.44E+03 | 4.04E+03 | 3.41E+03 | 4.42E+03 | 4.22E+03 | 4.51E+03 | 4.28E+03 | 5.3 ± 0.2 | 2.00 | 1.82 | 1.86 | 1.67 | Cmax [ratio] ([1]; area/internal standard area ratio, whole blood, 12 subjects, 12 mg ivermectin, NCA, mean ± SE): 0.003 ± 0.0003 ratio; Half-life [1, 5]: 15.9 ± 2.8 h; MRTlast [1, 5]: 13.9 ± 1.3 h
3 | 4, 26-dihydroxy- H2B1a [M8] | 7.02E+02 | 5.34E+02 | 4.91E+02 | 3.41E+02 | 3.43E+02 | 6.41E+02 | 3.42E+02 | 4.91E+02 | 4.29E+02 | 4.93E+02 | 2.79E+02 | 4.55E+02 | 4.62E+02 | 5.0 ± 0.3 | 2.00 | 1.91 | 1.93 | 1.68 | –
